US20260167623A1 (NIKANG THERAPEUTICS, INC., priority 2022, published 2026)

Molecular target: T1, CDK2 (Homo sapiens, UniProt P24941)
T1 construct: High-Throughput Measurement of Cellular Endogenous CDK2; endogenous in cells; host or cells: OVCAR3
Experiment: Inhibition of CDK2: phospho-Rb (S807/811) HTRF measurement in OVCAR3 cells, 24 h
Type: cell-based
Conditions: 24 h compound treatment, read-out: pRB_OVCAR3_24h
Experimental: Inhibition of CDK2: Phospho-R^b Measurement in Cells
Phosphorylation of RB protein at S807/811 were measured using HTRF phospho-RB cellular kits (Cat #64RBS807PEG) from Cisbio.
On Day 1, OVCAR3 (CDK2 dependent cell line) cells were seeded into 96-well tissue-culture treated plates at 20,000 cells/well in 200 μL and incubated overnight at 37° C. in CO2 atmosphere. On Day 2, the cells were treated with test compounds at concentrations from 0.3 to 10,000 nM using HP D300 digital dispenser. Twenty-four hours after compound treatment, cell culture media is removed by flicking the plate and tapping the plate against clean paper towel. 30 μL 1× lysis buffer was supplemented from the kit was added to each well and the plate was incubated at room temperature on shaker for 30 min. After homogenization by pipetting up and down, 8 μL cell lysate from 96-well cell culture plate was transferred to 384-well small volume white detection plate. 2 μL premixed detection solution was added and the plate was covered with sealer. To prepare the detection solution, d2 conjugated-phospho-RB antibody and Eu-cryptate conjugated phosphor-RB antibody were diluted into detection buffer following manufacturer's instruction. Detection plates were incubated for 4 h at room temperature and read on ClarioStar (BMG Labtech) in TR-FRET mode (665 nM and 620 nM). The TR-FRET ratio (665 nM/620 nM) was plotted against the compound concentration and normalized to DMSO controls. Half maximal inhibition concentration (IC50) values were calculated with a four-parameter logistic fit using GraphPad Prism (version 8; La Jolla, CA).

SMILES	IC50 [µM]
Cn1nc(N2CCC(=O)NC2=O)c2ccc(N3C4CCC3CN(CC3CCN(c5cccc(S(=O)(=O)N6CCC(Nc7ncc(Cl)cn7)CC6)c5)CC3)C4)cc21 [Example 104, 1-(6-(3-((1-(3-((4-((5-chloropyrimidin-2-yl)amino)piperidin-1-yl)sulfonyl)phenyl)-piperidin-4-yl)methyl)-3,8-diaza-bicyclo[3.2.1]octan-8-yl)-1-methyl-1H-indazol-3-yl)dihydropyrimidine-2,4(1H,3H)-dione]	> 2.5
Cn1nc(N2CCC(=O)NC2=O)c2ccc(C3CCN(Cc4cccc(S(=O)(=O)[C@H]5CC[C@H](Nc6ncc(Cl)cn6)CC5)c4)CC3)cc21 [Example 59, 1-(6-(1-(3-(((1r,4r)-4-((5-chloropyrimidin-2-yl)amino)cyclohexyl)sulfonyl)benzyl)piperidin-4-yl)-1-methyl-1H-indazol-3-yl)dihydropyrimidine-2,4(1H,3H)-dione]	> 2.5
Cn1nc(N2CCC(=O)NC2=O)c2ccc(N3CC4(CN(Cc5cccc(S(=O)(=O)N6CCC(Nc7ncc(Cl)cn7)CC6)c5)C4)C3)cc21 [Example 46]	0.5 to 2.5
CC(Cc1cccc(S(=O)(=O)N2CCC(Nc3ncc(Cl)cn3)CC2)c1)CN1CCN(c2cc3c(cc2F)C(=O)N(C2CCC(=O)NC2=O)C3)CC1 (centres unmarked) [Example 97, 3-(5-(4-(3-(3-((4-((5-chloropyrimidin-2-yl)amino)piperidin-1-yl)sulfonyl)phenyl)-2-methylpropyl)piperazin-1-yl)-6-fluoro-1-oxoisoindolin-2-yl)piperidine-2,6-dione]	0.5 to 2.5
O=C1CCC(N2C(=O)c3cc(F)c(N4CCN(Cc5cccc(S(=O)(=O)N6CCC(Nc7ncc(Cl)cn7)CC6)c5)CC4)cc3C2=O)C(=O)N1 (centres unmarked) [Example 22, 5-(4-(3-((4-((5-chloropyrimidin-2-yl)amino)piperidin-1-yl)sulfonyl)benzyl)-piperazin-1-yl)-2-(2,6-dioxopiperidin-3-yl)-6-fluoroisoindoline-1,3-dione]	0.5 to 2.5
Cn1nc(N2CCC(=O)NC2=O)c2cc(F)c(N3CCN(CC4CCN(c5cccc(S(=O)(=O)N6CCC(Nc7ncc(C(F)(F)F)cn7)CC6)c5)CC4)CC3)cc21 [Example 110, 1-(5-fluoro-1-methyl-6-(4-((1-(3-((4-((5-(trifluoromethyl)pyrimidin-2-yl)amino)-piperidin-1 - yl)sulfonyl)phenyl)piperidin-4-yl)methyl)piperazin-1-yl)-1H-indazol-3-yl)dihydropyrimidine-2,4(1H,3H)-dione]	0.1 to 0.5
O=C1CCC(Nc2ccc(N3CCN(Cc4cccc(S(=O)(=O)N5CCC(Nc6ncc(C(F)(F)F)cn6)CC5)c4)CC3)cc2)C(=O)N1 (centres unmarked) [Example 78, 3-((4-(4-(3-((4-((5-(trifluoromethyl)-pyrimidin-2-yl)amino)piperidin-1-yl)sulfonyl)benzyl)piperazin-1-yl)phenyl)amino) piperidine-2,6-dione]	0.1 to 0.5
Cn1nc(N2CCC(=O)NC2=O)c2ccc(C3CCN(Cc4cccc(S(=O)(=O)N5CCC(Nc6ncc(OC(F)F)cn6)CC5)c4)CC3(F)F)cc21 (centres unmarked) [Example 75, 1-(6-(1-(3-((4-((5-(difluoromethoxy)-pyrimidin-2-yl)amino)piperidin-1-yl)sulfonyl)benzyl)-3,3-difluoropiperidin-4-yl)-1-methyl-1H-indazol-3-yl)dihydropyrimidine-2,4(1H,3H)-dione]	0.1 to 0.5

Continued, values first:

IC50 [µM]	SMILES
> 2.5	Cn1nc(N2CCC(=O)NC2=O)c2ccc(C3CCN(Cc4cccc(S(=O)(=O)N5CC6(CC(Nc7ncc(C(F)(F)F)cn7)C6)C5)c4)CC3)cc21 [Example 146, 1-(1-methyl-6-(1-(3-((6-((5-(trifluoro-methyl)pyrimidin-2-yl)amino)-2-azaspiro[3.3]heptan-2-yl)sulfonyl)benzyl)-piperidin-4-yl)-1H-indazol-3-yl)dihydropyrimidine-2,4(1H,3H)-dione]
0.001 to 0.1	C[C@@H]1CN(CC2CCN(c3cccc(S(=O)(=O)N4CCC(Nc5ncc(Cl)cn5)CC4)c3)CC2)C[C@H](C)N1c1ccc2c(N3CCC(=O)NC3=O)nn(C)c2c1 [Example 127, 1-(6-((2S,6R)-4-((1-(3-((4-((5-chloro-pyrimidin-2-yl)amino)piperidin-1-yl)-sulfonyl)phenyl)piperidin-4-yl)methyl)-2,6-dimethylpiperazin-1-yl)-1-methyl-1H-indazol-3-yl)dihydropyrimidine-2,4(1H,3H)-dione]
> 2.5	Cn1nc(N2CCC(=O)NC2=O)c2ccc(C3CCN(Cc4cnn(C5CCN(S(=O)(=O)N6CCC(Nc7ncc(Cl)cn7)CC6)CC5)c4)CC3)cc21 [Example 163, 1-(6-(1-((1-(1-((4-((5-chloropyrimidin-2-yl)amino)piperidin-1-yl)sulfonyl)piperidin-4-yl)-1H-pyrazol-4-yl)methyl)piperidin-4-yl)-1-methyl-1H-indazol-3-yl)dihydropyrimidine-2,4(1H,3H)-dione]
0.5 to 2.5	Cn1nc(N2CCC(=O)NC2=O)c2ccc(C3CCN(C[C@@H]4CCCN4c4cccc(S(=O)(=O)N5CCC(Nc6ncc(OC(F)F)cn6)CC5)c4)CC3)cc21 [Example 259, (S)-1-(6-(1-((1-(3-((4-((5-(difluoromethoxy)pyrimidin-2-yl)amino)piperidin-1-yl)sulfonyl)phenyl)pyrrolidin-2-yl)methyl)piperidin-4-yl)-1-methyl-1H-indazol-3-yl)dihydropyrimidine-2,4(1H,3H)-dione]
0.1 to 0.5	N#Cc1ccc(S(=O)(=O)N2CCC(Nc3ncc(Cl)cn3)CC2)cc1N1CCC(CN2CCN(c3ccc4c(c3)CN(C3CCC(=O)NC3=O)C4=O)CC2)CC1 (centres unmarked) [Example 200, 4-((4-((5-chloropyrimidin-2-yl)amino)piperidin-1-yl)sulfonyl)-2-(4-((4-(2-(2,6-dioxopiperidin-3-yl)-1-oxoisoindolin-5-yl)piperazin-1-yl)methyl)piperidin-1-yl)benzonitrile]
0.1 to 0.5	Cn1cc(C2CCC(=O)NC2=O)c2ccc(C3CCN(CC4CCN(c5cccc(S(=O)(=O)N6CCC(Nc7ncc(Cl)cn7)CC6)c5)CC4)CC3)cc21 (centres unmarked) [Example 254, 3-(6-(1-((1-(3-((4-((5-chloropyrimidin-2-yl)amino)piperidin-1-yl)sulfonyl)phenyl)piperidin-4-yl)methyl)piperidin-4-yl)-1-methyl-1H-indol-3-yl)piperidine-2,6-dione]
0.1 to 0.5	O=C1CCC(N2Cc3cc(C4CCN(CC5CCN(c6cccc(S(=O)(=O)N7CCC(Nc8ncc(Cl)cn8)CC7)c6)CC5)CC4)c(F)cc3C2=O)C(=O)N1 (centres unmarked) [Example 120, 3-(5-(1-((1-(3-((4-((5-chloropyrimidin-2-yl)amino)piperidin-1-yl)sulfonyl)phenyl)-piperidin-4-yl)methyl)piperidin-4-yl)-6-fluoro-1-oxoisoindolin-2-yl)piperidine-2,6-dione]
0.1 to 0.5	Cn1nc(N2CCC(=O)NC2=O)c2ccc(C3=CCN(CC4CCN(c5cccc(S(=O)(=O)N6CCC(Nc7ncc(Cl)cn7)CC6)c5)CC4)CC3)cc21 [Example 134, 1-(6-(1-((1-(3-((4-((5-chloropyrimidin-2-yl)amino)piperidin-1-yl)sulfonyl)phenyl)-piperidin-4-yl)methyl)-1,2,3,6-tetrahydropyridin-4-yl)-1-methyl-1H-indazol-3-yl)dihydropyrimidine-2,4(1H,3H)-dione]
0.001 to 0.1	O=C1CCC(n2c(=O)n(CC3CCN(CC4CCN(c5cccc(S(=O)(=O)N6CCC(Nc7ncc(C(F)(F)F)cn7)CC6)c5)CC4)CC3)c3ccccc32)C(=O)N1 (centres unmarked) [Example 186, 3-(2-oxo-3-((1-((1-(3-((4-((5-(trifluoromethyl)pyrimidin-2-yl)amino)piperidin-1-yl)sulfonyl)phenyl)piperidin-4-yl)methyl)piperidin-4-yl)methyl)-2,3-dihydro-1H-benzo[d]imidazol-1-yl)piperidine-2,6-dione]
0.1 to 0.5	Cn1nc(N2CCC(=O)NC2=O)c2ccc(C3CN(CC4CCN(c5cccc(S(=O)(=O)N6CCC(Nc7ncc(Cl)cn7)CC6)c5)CC4)C3)cc21 [Example 249, 1-(6-(1-((1-(3-((4-((5-chloropyrimidin-2-yl)amino)piperidin-1-yl)sulfonyl)phenyl)piperidin-4-yl)methyl)azetidin-3-yl)-1-methyl-1H-indazol-3-yl)dihydropyrimidine-2,4(1H,3H)-dione]
0.1 to 0.5	Cn1nc(N2CCC(=O)NC2=O)c2cc(C3CCN(CC4CCN(c5cccc(S(=O)(=O)N6CCC(Nc7ncc(C(F)(F)F)cn7)CC6)c5)CC4)CC3)ccc21 [Example 137, 1-(1-methyl-5-(1-((1-(3-((4-((5-(trifluoro-methyl)pyrimidin-2-yl)amino)piperidin-1-yl)sulfonyl)phenyl)piperidin-4-yl)methyl)-piperidin-4-yl)-1H-indazol-3-yl)dihydropyrimidine-2,4(1H,3H)-dione]
> 2.5	CO[C@@H]1CN(S(=O)(=O)c2cccc(N3CCC(CN4CCC(c5ccc6c(N7CCC(=O)NC7=O)nn(C)c6c5)CC4)CC3)c2)CC[C@H]1Nc1ncc(Cl)cn1 (racemic) [Example 219, Rac-1-(6-(1-((1-(3-(((3R,4R)-4-((5-chloropyrimidin-2-yl)amino)-3-methoxypiperidin-1-yl)sulfonyl)phenyl)piperidin-4-yl)methyl)piperidin-4-yl)-1-methyl-1H-indazol-3-yl)dihydropyrimidine-2,4(1H,3H)-dione]
